Test results: patent publication US11278515B2, “Composition for improvement of sleep or for prevention or treatment of sleep disorders, containing beta-lapachone” (AJOU UNIVERSITY INDUSTRY-ACADEMIC COOPERATION FOUNDATION, priority 2016, dated 2022)

System: mice
Test: pentobarbital-induced sleep test in mice (sleep latency and total sleeping time)
Format: in vivo
Conditions: 30 minutes before pentobarbital 45 mg/kg i.p.
Protocol: A sleep disorder refers to syndromes in which one cannot fall asleep well and the total sleeping time is short. In order to confirm the effect of improving the sleep quality of beta-lapachone, mice were purchased from Orient Bio Co. Beta-lapachone (Sigma Aldrich) was administered once intraperitoneally or orally to mice at a dose of 0.03, 0.1, 0.3, or 1 mg/kg by concentration, respectively, 30 minutes before induction of sleep, and 0.9% physiological saline was administered to the control mice, and 1 mg/kg of diazepam (MYUNG IN Pharm. Co.), most popular used sleeping pill, was administered intraperitoneally or orally to the positive control mice. 45 mg/kg of pentobarbital ([…] Pharm. Co., Ltd.), a commercially used sedative and sleeping pill, was intraperitoneally administered to mice to induce sleeping after 30 minutes of the above administration.

In the case of `CC1(C)CCC2=C(O1)c1ccccc1C(=O)C2=O` [beta-lapachone], the sleep latency (single intraperitoneal administration at 0.03, 0.1, 0.3 or 1 mg/kg, FIG. 1) is reported as “shortened in a concentration-dependent manner”, the total sleeping time (single intraperitoneal administration at 0.03, 0.1, 0.3 or 1 mg/kg, FIG. 2) is reported as “increased in a concentration-dependent manner” and the sleep latency (single oral administration at 0.03, 0.1, 0.3 or 1 mg/kg, FIG. 3) is reported as “shortened in a concentration-dependent manner”. The total sleeping time (single oral administration at 0.03, 0.1, 0.3 or 1 mg/kg, FIG. 4) was “increased in a concentration-dependent manner”.
